Here are results for two compounds from paper PMC7407272, “Induction of Lysosome Membrane Permeabilization as a Therapeutic Strategy to Target Pancreatic Cancer Stem Cells” (Cancers, 2020).

In general, EC50 refers to the concentration giving half of the maximal effect. High values mean a less potent agent, low ones a more potent agent.

One test relates to PDAC1 3D spheres. Description: Viability curves on PDAC1 3D spheres. In kind it is cell-based. The following applies: Homo sapiens, 30 h. The source says:
The PDAC patient-derived xenograft (PDX) Panc354 (referred to hereafter as PDAC3) was obtained from Dr. Manuel Hidalgo under a Material Transfer Agreement with the Spanish National Cancer Centre (CNIO), Madrid, Spain (Reference no. I409181220BSMH). PDAC1, PDAC2 and PDAC4 PDXs were established from primary patient resected tumors. Samples were provided by the BioBank Hospital Ramón y Cajal-IRYCIS (PT13/0010/0002), integrated in the Spanish National Biobanks Network and they were processed following standard operating procedures with the appropriate approval of the Ethical and Scientific Committees (Control no. No. Control: DE-BIOB-73 AC65, RG.BIOB-96 REV, and CI-BIOB-08-10-01 rev), with informed consent and according to Declaration of Helsinki principles. […]
Pancreatic CSC spheres were generated as previously described in ultra-low attachment plates (Corning) using CSC media: serum-free DMEM/F12 medium (1:1; #21331-020; Gibco, Waltham, MA, USA), supplemented with Pen/Strep (1:100; #1500-063; Gibco, Waltham, MA, USA), Fungizone (1:250; #15290-018; Gibco), L-Glutamine (1:100; #25030-024; Gibco, Waltham, MA, USA), B-27 (1:50; #17504-044; Gibco, Waltham, MA, USA) and basic fibroblast growth factor (FGF-b) (1:5000; Gibco, Waltham, MA, USA). […] To quantify spheres of > 40 μm, 1 mL of sample volume was analyzed with a CASY® Cell Counter (Roche Applied Sciences, Mannheim, Germany). […]

A further test deals with T1, CSNK2A2 (Homo sapiens, UniProt P19784).
T1 construct: purchased DiscoveRx KINOMEscan
T1 sequence (P19784 whole entry): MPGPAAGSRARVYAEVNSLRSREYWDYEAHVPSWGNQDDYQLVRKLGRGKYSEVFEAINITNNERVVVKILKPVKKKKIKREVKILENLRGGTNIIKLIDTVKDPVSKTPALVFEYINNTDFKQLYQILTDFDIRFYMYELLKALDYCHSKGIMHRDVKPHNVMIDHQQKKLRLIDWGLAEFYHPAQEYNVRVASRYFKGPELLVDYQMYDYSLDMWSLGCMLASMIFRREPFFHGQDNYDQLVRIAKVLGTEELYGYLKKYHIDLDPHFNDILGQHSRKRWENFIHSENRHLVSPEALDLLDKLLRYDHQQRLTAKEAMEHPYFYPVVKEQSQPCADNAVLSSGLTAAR
Description: KINOMEscan. In kind it is binding. The following applies: read-out: % Ctrl.

The target of the next test is T2, PKAC-beta (Homo sapiens, UniProt P22694).
T2 construct: purchased DiscoveRx KINOMEscan
Description: KINOMEscan. Format: binding. To be noted: read-out: % Ctrl.

A further test addresses T3, HIPK2 (Homo sapiens, UniProt Q9H2X6).
T3 construct: purchased DiscoveRx KINOMEscan
In words: KINOMEscan. In kind it is binding. The following applies: read-out: % Ctrl.

Another test addresses T4, ABL1-nonP (Homo sapiens, UniProt P00519).
T4 construct: purchased DiscoveRx KINOMEscan
In words: KINOMEscan. To be noted: read-out: % Ctrl. In kind it is binding.

A further test concerns the target T5, LKB1 (Homo sapiens, UniProt Q15831).
T5 construct: purchased DiscoveRx KINOMEscan
Description: KINOMEscan. Format: binding. The following applies: read-out: % Ctrl.

In a further test the target is T6, PRKX (Homo sapiens, UniProt P51817).
T6 construct: purchased DiscoveRx KINOMEscan
T6 sequence (P51817 whole entry): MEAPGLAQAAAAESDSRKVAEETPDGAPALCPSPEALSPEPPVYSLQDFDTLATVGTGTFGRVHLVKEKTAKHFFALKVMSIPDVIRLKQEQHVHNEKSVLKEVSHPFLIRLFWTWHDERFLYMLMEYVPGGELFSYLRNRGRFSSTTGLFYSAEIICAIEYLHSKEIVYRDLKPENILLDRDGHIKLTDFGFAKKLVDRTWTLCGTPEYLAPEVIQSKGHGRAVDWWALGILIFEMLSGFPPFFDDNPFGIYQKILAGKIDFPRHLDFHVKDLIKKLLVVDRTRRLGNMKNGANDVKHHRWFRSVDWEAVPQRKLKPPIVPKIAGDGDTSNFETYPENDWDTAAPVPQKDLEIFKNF
In words: KINOMEscan. In kind it is binding. To be noted: read-out: % Ctrl.

A further test has as its target T7, FGFR1 (Homo sapiens, UniProt P11362).
T7 construct: purchased DiscoveRx KINOMEscan
Description: KINOMEscan. In kind it is binding. The following applies: read-out: % Ctrl.

Another test addresses T8, CAMKK2 (Homo sapiens, UniProt Q96RR4).
T8 construct: purchased DiscoveRx KINOMEscan
Description: KINOMEscan. In kind it is binding. To be noted: read-out: % Ctrl.

The target of another test is T9, BMX (Homo sapiens, UniProt P51813).
T9 construct: purchased DiscoveRx KINOMEscan
In words: KINOMEscan. In kind it is binding. The following applies: read-out: % Ctrl.

The target in a further test is T10, FLT3(D835V) (Homo sapiens, UniProt P36888, D835V).
T10 construct: purchased DiscoveRx KINOMEscan
In words: KINOMEscan. In kind it is binding. To be noted: read-out: % Ctrl.

The test system of a further test is FLT3(ITD,D835V). Description: KINOMEscan. In kind it is binding, human. To be noted: 1 µM.
A further test concerns the target T11, HUNK (Homo sapiens, UniProt P57058).
T11 construct: purchased DiscoveRx KINOMEscan
Description: KINOMEscan. Format: binding. To be noted: read-out: % Ctrl.

Another test addresses T12, CLK1 (Homo sapiens, UniProt P49759).
T12 construct: purchased DiscoveRx KINOMEscan
In words: KINOMEscan. Format: binding. The following applies: read-out: % Ctrl.

A further test has as its target T13, MAP4K3 (Homo sapiens, UniProt Q8IVH8).
T13 construct: purchased DiscoveRx KINOMEscan
In words: KINOMEscan. Format: binding. To be noted: read-out: % Ctrl.

In another test the target is T14, PIK3CA(H1047Y) (Homo sapiens, UniProt P42336, H1047Y).
T14 construct: purchased DiscoveRx KINOMEscan
T14 sequence (P42336 whole entry H1047Y): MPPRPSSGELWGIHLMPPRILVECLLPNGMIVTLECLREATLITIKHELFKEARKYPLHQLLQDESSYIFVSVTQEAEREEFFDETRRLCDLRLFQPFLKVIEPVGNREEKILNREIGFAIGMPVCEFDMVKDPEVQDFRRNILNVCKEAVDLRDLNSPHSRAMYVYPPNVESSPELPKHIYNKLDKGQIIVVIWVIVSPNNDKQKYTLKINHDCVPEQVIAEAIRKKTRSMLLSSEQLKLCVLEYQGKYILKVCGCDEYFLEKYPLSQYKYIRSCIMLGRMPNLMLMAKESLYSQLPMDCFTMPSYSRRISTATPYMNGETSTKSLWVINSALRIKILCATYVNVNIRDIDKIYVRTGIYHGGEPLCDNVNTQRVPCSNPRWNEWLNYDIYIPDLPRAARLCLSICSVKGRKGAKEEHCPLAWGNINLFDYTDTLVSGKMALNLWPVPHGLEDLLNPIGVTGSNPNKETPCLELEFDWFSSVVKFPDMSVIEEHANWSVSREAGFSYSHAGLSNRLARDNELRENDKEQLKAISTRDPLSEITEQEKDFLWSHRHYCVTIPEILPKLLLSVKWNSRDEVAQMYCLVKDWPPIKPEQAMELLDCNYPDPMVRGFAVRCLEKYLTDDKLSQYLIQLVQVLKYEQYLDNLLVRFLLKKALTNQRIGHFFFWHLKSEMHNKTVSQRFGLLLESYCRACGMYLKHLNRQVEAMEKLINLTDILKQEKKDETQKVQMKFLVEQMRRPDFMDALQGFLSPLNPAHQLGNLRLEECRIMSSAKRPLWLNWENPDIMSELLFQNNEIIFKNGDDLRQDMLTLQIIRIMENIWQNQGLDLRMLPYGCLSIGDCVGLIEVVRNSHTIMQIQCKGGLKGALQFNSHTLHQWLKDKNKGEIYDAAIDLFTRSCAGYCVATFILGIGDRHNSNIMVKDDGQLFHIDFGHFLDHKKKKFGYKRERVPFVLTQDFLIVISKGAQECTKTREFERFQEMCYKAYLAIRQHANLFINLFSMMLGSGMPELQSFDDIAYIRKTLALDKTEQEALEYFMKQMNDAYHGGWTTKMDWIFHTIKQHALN
In words: KINOMEscan. Format: binding. To be noted: read-out: % Ctrl.

For a further test, the target named is T15, MEK3 (Homo sapiens, UniProt P46734).
T15 construct: purchased DiscoveRx KINOMEscan
T15 sequence (P46734 whole entry): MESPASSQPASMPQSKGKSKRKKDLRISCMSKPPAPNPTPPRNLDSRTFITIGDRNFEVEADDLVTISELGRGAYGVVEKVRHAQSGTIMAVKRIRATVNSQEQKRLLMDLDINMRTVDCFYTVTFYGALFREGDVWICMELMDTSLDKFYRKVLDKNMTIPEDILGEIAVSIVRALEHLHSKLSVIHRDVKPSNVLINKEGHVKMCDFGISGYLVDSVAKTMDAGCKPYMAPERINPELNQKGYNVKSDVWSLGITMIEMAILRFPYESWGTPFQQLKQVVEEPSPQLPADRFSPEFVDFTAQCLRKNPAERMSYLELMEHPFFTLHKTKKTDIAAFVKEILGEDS
Description: KINOMEscan. In kind it is binding. The following applies: read-out: % Ctrl.

Another test addresses T16, PIP5K1C (Homo sapiens, UniProt O60331).
T16 construct: purchased DiscoveRx KINOMEscan
In words: KINOMEscan. Format: binding. To be noted: read-out: % Ctrl.

The next test has as its target T17, FGFR3(G697C) (Homo sapiens, UniProt P22607, G697C).
T17 construct: purchased DiscoveRx KINOMEscan
Description: KINOMEscan. In kind it is binding. The following applies: read-out: % Ctrl.

T4 sequence (P00519 whole entry): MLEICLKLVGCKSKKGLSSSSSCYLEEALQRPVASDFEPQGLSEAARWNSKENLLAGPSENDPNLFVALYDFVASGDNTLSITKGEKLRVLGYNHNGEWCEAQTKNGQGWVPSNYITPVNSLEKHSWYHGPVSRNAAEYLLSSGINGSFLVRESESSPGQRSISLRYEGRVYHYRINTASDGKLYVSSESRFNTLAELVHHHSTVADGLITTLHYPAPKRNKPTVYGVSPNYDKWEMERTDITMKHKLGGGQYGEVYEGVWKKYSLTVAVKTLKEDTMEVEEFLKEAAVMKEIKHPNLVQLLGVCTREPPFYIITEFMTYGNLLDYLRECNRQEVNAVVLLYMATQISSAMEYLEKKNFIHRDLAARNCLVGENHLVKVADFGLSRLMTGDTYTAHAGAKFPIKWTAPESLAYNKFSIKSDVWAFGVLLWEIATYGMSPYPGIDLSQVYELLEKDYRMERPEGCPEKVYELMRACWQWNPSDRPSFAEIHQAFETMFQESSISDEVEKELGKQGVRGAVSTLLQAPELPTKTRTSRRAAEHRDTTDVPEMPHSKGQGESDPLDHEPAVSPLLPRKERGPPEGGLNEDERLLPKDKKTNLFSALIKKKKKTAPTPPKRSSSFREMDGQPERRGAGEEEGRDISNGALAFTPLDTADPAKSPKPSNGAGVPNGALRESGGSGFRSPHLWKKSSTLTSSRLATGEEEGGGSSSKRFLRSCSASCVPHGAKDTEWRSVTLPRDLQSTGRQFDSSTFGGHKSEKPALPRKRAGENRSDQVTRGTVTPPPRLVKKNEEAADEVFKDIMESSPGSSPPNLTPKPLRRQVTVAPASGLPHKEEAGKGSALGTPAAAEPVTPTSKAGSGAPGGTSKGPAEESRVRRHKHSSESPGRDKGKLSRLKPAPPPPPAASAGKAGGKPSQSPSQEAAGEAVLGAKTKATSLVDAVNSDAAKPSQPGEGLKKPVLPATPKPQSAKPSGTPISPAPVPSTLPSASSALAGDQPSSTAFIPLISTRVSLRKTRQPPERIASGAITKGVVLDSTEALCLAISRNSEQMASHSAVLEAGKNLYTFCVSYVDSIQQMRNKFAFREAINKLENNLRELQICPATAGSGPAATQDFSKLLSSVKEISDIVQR
T3 sequence (Q9H2X6 whole entry): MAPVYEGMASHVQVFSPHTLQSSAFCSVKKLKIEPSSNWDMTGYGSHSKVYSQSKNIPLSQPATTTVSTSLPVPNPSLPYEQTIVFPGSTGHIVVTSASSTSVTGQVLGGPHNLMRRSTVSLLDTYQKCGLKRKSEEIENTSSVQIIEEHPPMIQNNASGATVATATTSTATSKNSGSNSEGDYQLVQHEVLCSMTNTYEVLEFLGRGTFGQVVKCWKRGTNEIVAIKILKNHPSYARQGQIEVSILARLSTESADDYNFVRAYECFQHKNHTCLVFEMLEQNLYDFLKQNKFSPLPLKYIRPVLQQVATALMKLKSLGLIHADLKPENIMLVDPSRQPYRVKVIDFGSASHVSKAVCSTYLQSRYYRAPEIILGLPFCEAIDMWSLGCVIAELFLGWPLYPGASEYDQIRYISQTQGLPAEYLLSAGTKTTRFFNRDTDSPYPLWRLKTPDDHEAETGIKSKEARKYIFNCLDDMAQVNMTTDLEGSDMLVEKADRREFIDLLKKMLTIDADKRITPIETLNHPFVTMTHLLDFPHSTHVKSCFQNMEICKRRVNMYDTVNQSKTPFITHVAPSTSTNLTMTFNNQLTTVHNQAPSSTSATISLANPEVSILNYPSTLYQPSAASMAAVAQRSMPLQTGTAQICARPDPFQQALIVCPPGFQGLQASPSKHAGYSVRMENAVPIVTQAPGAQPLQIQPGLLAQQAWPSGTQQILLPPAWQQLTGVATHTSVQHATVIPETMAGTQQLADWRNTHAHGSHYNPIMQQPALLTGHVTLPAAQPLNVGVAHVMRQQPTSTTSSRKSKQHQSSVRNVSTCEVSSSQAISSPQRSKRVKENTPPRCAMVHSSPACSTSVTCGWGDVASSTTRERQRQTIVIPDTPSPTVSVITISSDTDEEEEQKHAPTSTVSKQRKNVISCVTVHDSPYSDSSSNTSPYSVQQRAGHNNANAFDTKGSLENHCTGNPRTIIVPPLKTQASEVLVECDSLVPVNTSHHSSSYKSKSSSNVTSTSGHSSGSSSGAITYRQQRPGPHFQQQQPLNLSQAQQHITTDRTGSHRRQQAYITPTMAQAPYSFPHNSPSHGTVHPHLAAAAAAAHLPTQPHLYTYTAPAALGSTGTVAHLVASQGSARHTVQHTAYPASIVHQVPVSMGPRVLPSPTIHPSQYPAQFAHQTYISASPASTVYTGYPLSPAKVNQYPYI
T5 sequence (Q15831 whole entry): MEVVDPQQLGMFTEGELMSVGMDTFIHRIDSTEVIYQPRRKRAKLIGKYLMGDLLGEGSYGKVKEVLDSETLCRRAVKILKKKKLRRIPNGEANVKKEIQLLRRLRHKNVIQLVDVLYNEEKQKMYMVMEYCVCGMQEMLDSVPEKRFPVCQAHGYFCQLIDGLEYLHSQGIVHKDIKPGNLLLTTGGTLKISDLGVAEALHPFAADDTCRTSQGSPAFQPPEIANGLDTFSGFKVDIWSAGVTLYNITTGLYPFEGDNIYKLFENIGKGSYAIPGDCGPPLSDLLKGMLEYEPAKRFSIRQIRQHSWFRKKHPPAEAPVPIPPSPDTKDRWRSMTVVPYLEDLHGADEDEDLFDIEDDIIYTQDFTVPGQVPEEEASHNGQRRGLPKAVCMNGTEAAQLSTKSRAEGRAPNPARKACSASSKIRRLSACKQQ

Consider `COc1nc2ccc(NCC3CCN(C)CC3)nn2c1C(=O)Nc1cccc(OC(F)(F)F)c1` [Cpd 1], for which, in the test on PDAC1 3D spheres, the concentration giving a half-maximal response (EC50) is about 2910 nM.

With `CN1CCC(CNc2ccc3ncc(C(=O)Nc4cccc(OC(F)(F)F)c4)n3n2)CC1` [Cpd 2], the remaining binding at 1 µM on CSNK2A2 stood at 39%; on PKAC-beta it was 88%; at HIPK2 it was 68%; at ABL1-nonP, 100%; at LKB1, 96%; on PRKX, 100%. Besides, the remaining binding at 1 µM on FGFR1 stood at 100%; on CAMKK2 it was 100%; at BMX it was 100%; on FLT3(D835V), 0.45%; at HUNK, 100%; on CLK1, 100%. Also, the remaining binding at 1 µM was found to be 95% on MAP4K3; 96% at PIK3CA(H1047Y); 94% at MEK3; 74% at PIP5K1C; 99% on FGFR3(G697C). Further, the “% Ctrl” value in the test on FLT3(ITD,D835V) was 9.1%.
